According to US10959992B2, “Methods of treatment of asthma and COPD” (Bridge Pharma, Inc., priority 2019, dated 2021):
Values after ≈ are worked out from the molar mass of the structure shown. Where two headings read alike, the source gives them in different places.

Experiments:
IL-2 = test: PHA-induced release of IL-2 from human buffy coats; assay type: cell-based; conditions: PHA 5 μg/ml, 16 hours, inhibition
Description: (§1) The study was conducted in two phases. The first phase included optimization of the test methodology and included also dose-range finding studies, using buffy coats from 3 human donors, stimulated with phytohemagglutinin (PHA). The concentrations of the test article and the duration of exposure were optimized to obtain acceptable dose-response ratios. Following optimization of the test conditions, a final protocol was issued. In the Main Study, buffy coats from 5 healthy human male donors were stimulated with PHA, 5 μg/ml.
(§2) The inhibitory effects of three concentrations of NK and one concentration of ketotifen were evaluated in the Main Study. The buffy coats were resuspended in assay media and were pre-incubated for 30 min with either vehicle/saline, ketotifen (10 μM) or norketotifen (1.0; 10 or 100 μM). Following these preincubations, the white blood cell suspensions were stimulated for 16 hours with PHA, 5 μg/ml. The cell system supernatants were then harvested and stored frozen.

IL-4 = test: PHA-induced release of IL-4 from human buffy coats; assay type: cell-based; conditions: PHA 5 μg/ml, 16 hours, inhibition
Description: as §1, §2

IFN-γ = test: PHA-induced release of IFN-γ from human buffy coats; assay type: cell-based; conditions: PHA 5 μg/ml, 16 hours, inhibition
Description: as §1, §2

Aspergillus fumigatus = test: Antimicrobial activity (MIC), Aspergillus fumigatus; assay type: cell-based; conditions: Fungi: Af, MIC refers to lethal concentrations
IL-1β = test: PHA-induced release of IL-1β from human buffy coats; assay type: cell-based; conditions: PHA 5 μg/ml, 16 hours, inhibition
Description: as §1, §2

Malassezia pachydermatis = test: Antimicrobial activity (MIC), Malassezia pachydermatis; assay type: cell-based; conditions: Fungi: Mp, MIC refers to lethal concentrations
Streptococcus pneumoniae = test: Antimicrobial activity (MIC), Streptococcus pneumoniae; assay type: cell-based; conditions: Bacteria: Sp, MIC refers to lethal concentrations
[1] = tested on: Trichophyton interdigitale; test: Antimicrobial activity (MIC), Trichophyton interdigitale; assay type: cell-based; conditions: Mold: Ti, MIC refers to lethal concentrations
Candida albicans = test: Antimicrobial activity (MIC), Candida albicans; assay type: cell-based; conditions: Fungi: Ca, MIC refers to lethal concentrations
human M-3 (hM3) receptor = human M-3 (hM3) receptor (Homo sapiens, UniProt P20309); test: Muscarinic M-3 receptor binding assay; conditions: calculated from mean values, as norketotifen free base; NK hydrogen fumarate tested in duplicates, 1.0E-08M to 1.0E-04M
Text: The current study used human M-3 (hM3) receptor and NK hydrogen fumarate was the antagonist in the current studies. The study used NK in duplicates at five dose-levels from 1.0E-08M to 1.0E-04M.

immune system = test: Repeat-dose toxicology studies, signs of immune system suppression; assay type: in vivo; conditions: repeat-dose toxicology studies: hematology, clinical chemistry, histopathology, organ and body weight indicators
IL-13 = test: PHA-induced release of IL-13 from human buffy coats; assay type: cell-based; conditions: PHA 5 μg/ml, 16 hours, inhibition
Description: as §1, §2

sedation [2] = conditions: orally administered, dogs; U.S. Pat. No. 8,557,846; cited from earlier work
Water solubility = assay type: physicochemical
[3] = Plasma concentration after sc infusion (follow-up study); assay type: in vivo; conditions: Sprague-Dawley, rat, 1 mg/kg/day, after sc infusion of RS-norketotifen for 5 days, rats
[4] = tested on: oxazolone-induced increase in ear thickness; test: Oxazolone test of immunosuppression (ear thickness); assay type: in vivo, BALB/c mice; conditions: for Increase in ear thickness (mm): control 0.153; for Increase in ear thickness (%): control 100.0
Description: Male BALB/c mice, 20-24 grams, 7-12 weeks, were used. The sensitization dosing (Day 1) consisted of painting the ventral portion of the pre-shaved abdominal skin with 0.1 ml of 3.0% oxazolone in 70% ethanol. Test articles were administered orally in 1.0% methyl-cellulose, starting on Day 1 and continuing for 10 consecutive days. The challenge dosing consisted of the application of 0.05 ml of 3.0% oxazolone in 70% ethanol on both sides of the outer pinna of the right ear. The thickness of both ears of all animals was measured with a calliper before the challenge dose and 24 hours after the administration of the challenge dose (Day 10). The ear thickness of untreated mice was 0.19 to 0.20 mm.
Justification of the model: The classic oxazolone test method was used with minor modifications. This method has been used for over 40 years in numerous drug development projects.

Moraxella catarrhalis = test: Antimicrobial activity (MIC), Moraxella catarrhalis; assay type: cell-based; conditions: Bacteria: Mc, MIC refers to lethal concentrations
Trichophyton rubrum = test: Antimicrobial activity (MIC), Trichophyton rubrum; assay type: cell-based; conditions: Mold: Tr, MIC refers to lethal concentrations
TNF-α = test: PHA-induced release of TNF-α from human buffy coats; assay type: cell-based; conditions: PHA 5 μg/ml, 16 hours, inhibition
Description: as §1, §2

[5] = tested on: croton oil-induced ear swelling; test: Croton oil-induced ear swelling; assay type: in vivo, CD-1 female mice; set-up: Average ear thickness: unit not given beside the values; conditions: for Average ear thickness: single oral dose 10 mg/kg 60 min before
Description: The effects of NK, PRED and the vehicle (5% PEG in water) were tested orally in CD-1 female mice. Under the test protocol, 20 μl of 1.0% croton oil in acetone was applied topically to both ears of three groups of mice, each group consisting of 6 mice. No attempt was made to remove the croton oil solution since the solvent evaporated within 30 seconds. The oral doses of NK and PRED were 10 mg/kg (10 ml/kg) bodyweight for both compounds and were administered 60 min before the croton oil applications. Vehicle-treated mice were dosed 10 ml/kg of water, containing 5% polyethylene glycol (PEG), which was also the solvent for the test articles. Ear thickness was measured with an electronic caliper and mean ear thickness (N=12; right+left ears) were calculated and compared with the thickness of ears from vehicle-treated mice (Student's t-test).

sedation [6] = conditions: orally administered, humans; U.S. Pat. Nos. 9,138,431 and 9,345,697; cited from earlier work
[7] = 10.0 mg/kg/day oral for 10 days
[8] = 30.0 mg/kg/day oral for 10 days

human M-3 (hM3) receptor, sequence (P20309 whole entry): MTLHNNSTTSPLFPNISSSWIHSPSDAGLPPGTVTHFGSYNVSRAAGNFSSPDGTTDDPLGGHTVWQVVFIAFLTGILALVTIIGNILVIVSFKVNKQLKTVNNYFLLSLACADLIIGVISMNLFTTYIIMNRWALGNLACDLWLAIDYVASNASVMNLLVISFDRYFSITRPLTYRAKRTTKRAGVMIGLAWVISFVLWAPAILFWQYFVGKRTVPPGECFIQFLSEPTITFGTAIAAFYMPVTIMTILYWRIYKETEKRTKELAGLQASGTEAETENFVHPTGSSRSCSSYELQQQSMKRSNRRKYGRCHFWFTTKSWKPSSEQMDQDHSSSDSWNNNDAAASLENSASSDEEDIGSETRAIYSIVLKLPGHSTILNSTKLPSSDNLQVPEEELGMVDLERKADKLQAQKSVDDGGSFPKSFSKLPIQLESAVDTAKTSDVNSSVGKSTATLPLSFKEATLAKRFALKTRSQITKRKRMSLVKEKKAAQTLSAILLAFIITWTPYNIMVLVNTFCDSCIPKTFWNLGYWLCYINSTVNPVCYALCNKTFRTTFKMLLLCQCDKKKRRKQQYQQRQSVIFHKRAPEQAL

O=C1Cc2ccccc2C(=C2CCNCC2)c2ccsc21 (racemic) [norketotifen]
Effect on PHA-induced release of IL-2 (%) (IL-2; 1 uM): 0.00%
Effect on PHA-induced release of IL-2 (%) (IL-2; 10 uM): 46.63^1%
Effect on PHA-induced release of IL-2 (%) (IL-2; 100 uM): 93.47^1%
Effect on PHA-induced release of IL-4 (%) (IL-4; 1 uM): 0.00%
Effect on PHA-induced release of IL-4 (%) (IL-4; 10 uM): 14.32%
Effect on PHA-induced release of IL-4 (%) (IL-4; 100 uM): 98.27^1%
Effect on PHA-induced release of IFN-γ (%) (IFN-γ; 1 uM): 0.00%
Effect on PHA-induced release of IFN-γ (%) (IFN-γ; 10 uM): 16.54^2%
Effect on PHA-induced release of IFN-γ (%) (IFN-γ; 100 uM): 71.56^1%
MIC (Aspergillus fumigatus): 4000 µg/mL (≈ 13500 µM)
Effect on PHA-induced release of IL-1β (%) (IL-1β; 1 uM): 0.00%
Effect on PHA-induced release of IL-1β (%) (IL-1β; 10 uM): 16.20%
Effect on PHA-induced release of IL-1β (%) (IL-1β; 100 uM): 57.00^1%
MIC (Malassezia pachydermatis): 1000 µg/mL (≈ 3390 µM)
MIC (Streptococcus pneumoniae): 500 µg/mL (≈ 1690 µM)
MIC (Streptococcus pneumoniae; Streptococcus pneumoniae, read-out: MIC): 500 µg/mL (≈ 1690 µM)
MIC [1]: 500 µg/mL (≈ 1690 µM)
MIC (Candida albicans): 1000 µg/mL (≈ 3390 µM)
Ki (human M-3 (hM3) receptor): 2200 nM
Signs of immune system suppression (immune system): no signs of immune system suppression
Effect on PHA-induced release of IL-13 (%) (IL-13; 1 uM): 0.00%
Effect on PHA-induced release of IL-13 (%) (IL-13; 10 uM): 34.49^1%
Effect on PHA-induced release of IL-13 (%) (IL-13; 100 uM): 74.25^1%
Sedative side effects (sedation [2]): free from sedative side effects
Water solubility (Water solubility): about 2%
solubility (Water solubility; water): ~20 mg/mL (≈ 67700 µM)
concentration at 5 days [3]: 4 ± 0.24 ng/mL
Immunosuppression (%) [4, 7]: 3.9%
Increase in ear thickness (mm) [4, 7]: 0.147 mm
Increase in ear thickness (%) [4, 7]: 96.1%
Immunosuppression (%) [4, 8]: 8.5%
Increase in ear thickness (mm) [4, 8]: 0.140 mm
Increase in ear thickness (%) [4, 8]: 91.5%
Immuno-suppressant activity (conclusion in words) ([4]; daily oral dosing for 10 days to mice, RS-norketotifen 10 or 30 mg/kg, prednisolone at 10 times lower doses): did not induce immuno-suppressant activity
MIC (Moraxella catarrhalis): 250 µg/mL (≈ 846 µM)
MIC (Moraxella catarrhalis; Moraxella catarrhalis, read-out: MIC): 250 µg/mL (≈ 846 µM)
MIC (Trichophyton rubrum): 500 µg/mL (≈ 1690 µM)
Effect on PHA-induced release of TNF-α (%) (TNF-α; 1 uM): 45.57^2%
Effect on PHA-induced release of TNF-α (%) (TNF-α; 10 uM): 63.07^1%
Effect on PHA-induced release of TNF-α (%) (TNF-α; 100 uM): 95.68^1%
Average ear thickness ([5]; 0 (predose) min after croton oil, vehicle 0.21 ± 0.02): 0.21 ± 0.02
Average ear thickness ([5]; 90 min after croton oil, vehicle 0.29 ± 0.04): 0.24 ± 0.02
Average ear thickness ([5]; 120 min after croton oil, vehicle 0.28 ± 0.02): 0.25 ± 0.02
Anti-inflammatory effect compared with vehicle control group (conclusion in words) ([5]; single oral dose 10 mg/kg, croton oil ear swelling in mice): statistically significant anti-inflammatory effects
Sedative side effects (sedation [6]): free from sedative side effects
